Experimental data taken from paper PMC11440508, “Dually Labeled Neurotensin NTS1R Ligands for Probing Radiochemical and Fluorescence-Based Binding Assays” (Journal of Medicinal Chemistry, 2024).

Assay: Radiochemical purity after storage (RP-HPLC)
Type: physicochemical
Settings: stock solution, degradation by radiolysis
Protocol: Figure 2 (A) Radiochemical purities (>99%) of [^3H]13 and [^3H]18 directly after synthesis determined by RP-HPLC analysis. (B) Radiochemical purities of [^3H]13 and [^3H]18 determined 11 months after synthesis. The purities amounted to 92% ([^3H]13) and 80% ([^3H]18).
Over a period of 11 months, degradation of both dually labeled ligands by radiolysis was low (Figure 2B).
A solution of succinimidyl [^3H]propionate (molar activity: 3.89 TBq/mmol, purchased from Novandi, Södertälje, Sweden) (55.5 MBq, 0.75 mL, 14.3 nmol) in n-heptane/EtOAc 3:2 v/v was transferred from the delivered ampule into a 1.5 mL polypropylene reaction vessel with screw cap, and the solvent was removed in a vacuum concentrator (30 °C, ca. 30 min). […] To quantify the activity of the two radioligands and to determine the molar concentration, 2 × 2 μL of the preliminary stock solution were added to 998 μL of DMSO/H2O 3:7 v/v, and 4 × 10 μL of these dilutions were counted in 3 mL of liquid scintillator (Rotiscint Eco Plus, Carl Roth, Karlsruhe, Germany) with a Tri-Carb 3100TR liquid scintillation counter (PerkinElmer). […] The molar activity of the labeling reagent succinimidyl [^3H]propionate was determined by liquid chromatography–mass spectrometry (LC-MS) analysis. Coinjection of “cold” succinimidyl propionate allowed the quantification of the incorporated tritium (Novandi, Södertälje, Sweden). […]

CCC(=O)NCCCCNC(=O)NC(=N)NCCC[C@H](NC(=O)[C@@H]1CCCN1C(=O)[C@@H](NC(=O)CCc1cn(CCCNC(=O)c2ccc(-c3c4ccc(=[N+](C)C)cc-4oc4cc(N(C)C)ccc34)c(C(=O)[O-])c2)nn1)C1CCNCC1)C(=O)N[C@@H](CCCNC(=N)N)C(=O)N1CCC[C@H]1C(=O)N[C@@H](Cc1ccc(O)cc1)C(=O)N[C@H](C(=O)N[C@@H](CC(C)C)C(=O)O)[C@@H](C)CC [[^3H]13]
Radiochemical purity 11 months after synthesis: 92%
